Measurements as given in BindingDB's records for doi:10.1021/jm9805081 (Warner-Lambert, 1999).
pIC50: −log10 of the molar value.

Biological target: T1, Prostaglandin G/H synthase 2 (Homo sapiens, UniProt P35354)
T1 sequence (P35354 whole entry): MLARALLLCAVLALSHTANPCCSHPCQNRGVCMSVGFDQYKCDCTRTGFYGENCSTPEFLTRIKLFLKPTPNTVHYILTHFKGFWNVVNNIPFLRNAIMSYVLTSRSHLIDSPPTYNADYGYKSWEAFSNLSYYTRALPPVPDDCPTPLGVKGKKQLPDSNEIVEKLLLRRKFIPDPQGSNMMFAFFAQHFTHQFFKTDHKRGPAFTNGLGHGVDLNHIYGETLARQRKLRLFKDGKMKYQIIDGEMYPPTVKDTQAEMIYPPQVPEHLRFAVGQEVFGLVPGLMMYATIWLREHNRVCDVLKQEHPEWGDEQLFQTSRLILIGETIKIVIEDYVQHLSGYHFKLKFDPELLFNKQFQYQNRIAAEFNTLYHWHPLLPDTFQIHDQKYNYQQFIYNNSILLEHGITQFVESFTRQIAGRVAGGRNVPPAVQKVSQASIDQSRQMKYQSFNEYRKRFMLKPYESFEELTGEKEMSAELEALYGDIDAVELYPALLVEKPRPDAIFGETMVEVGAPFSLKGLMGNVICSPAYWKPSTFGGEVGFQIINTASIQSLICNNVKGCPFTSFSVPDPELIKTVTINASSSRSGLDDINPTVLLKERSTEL
Experiment: IC50 value against recombinant human Prostaglandin G/H synthase 2 at 10 uM; not active

CONC1=NC(=O)C(=Cc2cc(C(C)(C)C)c(O)c(C(C)(C)C)c2)O1 [5-[1-(3,5-Di-tert-butyl-4-hydroxy-phenyl)-meth-(Z)-ylidene]-2-methoxyamino-oxazol-4-one]
pIC50: < 5.00
